Data from patent US10690666B2, “Methods and compositions for modulating TH-GM cell function” (National University of Singapore, priority 2014, dated 2020).

Tests used:
naïve CD4+ T cells [1] = assay: In vitro TH-GM (GM-CSF-expressing TH) differentiation from naïve CD4+ T cells; type: cell-based, mouse; details: anti-CD3 and anti-CD28 plus cytokine or antibody
Description: Naïve CD4^+ T cells were primed with plate-bound anti-CD3 and soluble anti-CD28 in the presence of a combination of various cytokines and neutralizing antibodies as indicated. GM-CSF, IL-17 and IFN-γ expression was analyzed by intracellular staining (FIG. 13A) or RT-PCR (FIG. 13B)
GM-CSF and IFN-γ expression in naive CD4^+ T cells activated for 72 h with anti-CD3 alone or plus anti-CD28 (FIG. 14A). In FIG. 14B, sorted naïve CD4^+ T cells were stimulated with anti-CD3 and anti-CD28 in the presence of neutralizing antibodies against IL-12 and IFN-γ without or with the addition of IL-6. The frequencies of GM-CSF^+ and IL-17^+ cells were measured by intracellular staining (FIG. 14B). In FIG. 14C, naïve CD4^+ T cells from Stat3^+/+ and Stat3^−/− mice were polarized under conditions as indicated for 72 h. The frequencies of GM-CSF^+ and IL-17^+ cells were analyzed. In FIG. 14D, naïve CD4^+ T cells were activated with anti-CD3 and anti-CD28 in the presence of IL-2 or anti-IL-2. The frequencies of GM-CSF^+, IL-17^+ and IFN-γ^+ cells were analyzed.
Naïve CD4^+ T cells were primed with plate-bound anti-CD3 and soluble anti-CD28 in the presence of various concentration of IL-7 as indicated. GM-CSF and IFN-γ expression was analyzed by intracellular staining (FIG. 15A) or ELISA (FIG. 15B). In FIGS. 15C and 15D, Stat5^+/+ and Stat5^−/− naïve CD4^+ T cells were activated with anti-CD3 and anti-CD28 in the presence IL-7 for 3 days. GM-CSF, IL-17 and IFN-γ expression was analyzed by intracellular cytokine staining (FIG. 15C). GM-CSF secretion was measured by ELISA (FIG. 15D).
In FIG. 22E, naïve CD4^+ T cells were isolated and activated under neutral condition or TH-GM cell-favoring condition with the addition of different concentrations of STAT5 inhibitor for 3 days. GM-CSF and IFN-γ expression was analyzed by intracellular cytokine staining and flow cytometry.

STAT5 = assay: Cytokine-induced STAT5 activation in CD4+ T cells, immunoblotting; type: cell-based, mouse; details: for STAT5 activation (tyrosine phosphorylation): CD4+ T cells cultured with TGF-β and IL-6 3 days, starved 6 h
Description: (§1) In FIG. 10A, purified CD4^+ T cells were cultured with TGF-β and IL-6 for 3 days, followed by starvation for 6 h. Then cells were treated with various cytokines for 30 min, and pSTAT3 and pSTAT5 was determined by immunoblotting. STAT3 and STAT5 were further detected after stripping. […] The RT-PCR data were normalized to β-Actin. […] The frequencies of GM-CSF^+ and IL-17^+ cells among CD4^+CD44^hi T cells were measured by flow cytometry. *p<0.05.
(§2) FIGS. 17A-17C show flow cytometry of CD25 and CD127 on the surface of naïve CD4^+ T cells or cells activated with anti-CD3 and anti-CD28 at various time points as indicated. […] The RT-PCR data were normalized to β-Actin, and expression in naïve T cells activated for 2 h without cytokine was set to 1.
As shown in FIGS. 18A and 18B, CD4^+ T cells were activated with anti-CD3 and anti-CD28 for 3 days. […] The pTyr-STAT5 and β-Actin were detected by immunoblotting (FIG. 18A). GM-CSF mRNA expression was measured by RT-PCR (FIG. 18B). The RT-PCR data were normalized to β-Actin, and expression in cells without cytokine stimulation was set to 1. The ChIP assay shown in FIG. 18C was performed with normal IgG or STAT5-specific antibody. The binding of antibodies to Csf2 promoter region was detected by RT-PCR.
(§3) Next, the mechanism by which STAT5 regulates GM-CSF expression was investigated. […] Therefore, the effect of these two cytokines on GM-CSF induction in autoreactive T cells was further examined. […] GM-CSF and IL-17 production by CD4^+ T cells were analyzed by intracellular cytokine staining.

naïve CD4+ T cells [2] = assay: In vitro TH17 differentiation; type: cell-based, mouse; details: data not shown
Description: CD4^+ T cells were obtained from spleens and lymph nodes by positive selection and magnetic separation (Miltenyi Biotech), followed by purification of naïve CD4^+ T cell population (CD4^+CD25^−CD62L^hiCD44^lo) sorted with FACS Aria. Naïve CD4^+ T cells were stimulated with plate-bound anti-CD3 (3 μg/ml; BD Pharmingen) and anti-CD28 (1 μg/ml; BD Pharmingen) in presence of different combinations of neutralizing antibodies and cytokines for 3˜4 days: for neutral conditions, no addition of any cytokine or neutralizing antibody; for TH1 conditions, IL-12 (10 ng/ml), and anti-IL-4 (10 μg/ml, BD Pharmingen); for TH17 conditions, hTGF-β (3 ng/ml), IL-6 (20 ng/ml), anti-IFN-γ (10 μg/ml, eBioscience), and anti-IL-4 (10 μg/ml); for an alternative TH17 conditions, IL-6 (20 ng/ml), IL-23 (10 ng/ml), IL-1β (10 ng/ml), anti-IFN-γ (10 μg/ml), and anti-IL-4 (10 μg/ml). […] Cells were acquired on the LSR II (BD Biosciences) and analyzed with FlowJo software (Tree Star).
Stat5 deletion (Cd4-cre; Stat5^f/−) mice was reported to develop peripheral lymphopenia, with a reduction of both CD4^+ and CD8^+ T cells (Yao et al., 2006). […] Furthermore, increased frequencies of IL-17^+ and IFN-γ^+ cells were detected among CD4^+ T cells in spleens of Stat5^−/− mice (FIG. 4C), which further support the idea that the resistance to EAE in Stat5^−/− mice is likely independent of TH1 and TH17 generation. […]

[3] = system: CD62LhiCD44lo and CD62LloCD44hi T cells; assay: GM-CSF expression in sorted CD62LhiCD44lo and CD62LloCD44hi T cells, RT-PCR; type: cell-based, mouse; details: anti-CD3 and anti-CD28, cytokine 4 h
Description: Splenocytes were obtained from MOG35-55/CFA-immunized Stat5^+/+ and Stat5^−/− mice before disease onset and challenged with MOG35-55 (20 μg/ml) in the absence or presence of IL-7 for 48 h. Frequencies of GM-CSF^+ and IL-17^+ cells among CD4^+CD44^hi T cells were measured by flow cytometry (FIG. 11A). GM-CSF secretion was measured by ELISA (FIG. 11B). Data represent two independent experiments with two to three mice per group. Splenic CD62L^hiCD44^lo and CD62L^loCD44^hi T cells from MOG35-55/CFA-immunized mice were sorted out. Cells were stimulated with anti-CD3 and anti-CD28 in the absence or presence of IL-7 for 4 h and then harvested for the analysis of GM-CSF expression by RT-PCR (FIG. 11C). *p<0.05
Total RNA was extracted from cells with RNeasy kit (Qiagen) according to the manufacturer's instruction. Complementary DNA (cDNA) was synthesized with Superscript reverse transcriptase (Invitrogen). Gene expressions were measured by 7500 real-time PCR system (Applied Biosystems) with SYBR qPCR kit (KAPA). Actinb, Gapdh or Rn18S was used as internal control. The primer sequences are available upon request.
Thus, CD62L^hiCD44^lo and CD62L^loCD44^hi T cells were sorted from Stat5^−/− mice and littermate controls during EAE development, and then activated cells in the presence or absence of IL-7.

CD4+CD44hi T cells = assay: MOG35-55 challenge of splenocytes from immunized mice, GM-CSF expression; type: cell-based, mouse; details: MOG35-55 (20 μg/ml) plus cytokine, 48 h
Description: as §1, §3

naïve CD4+ T cells [4] = assay: GM-CSF mRNA expression in naïve CD4+ T cells stimulated with IL-2 or IL-7, RT-PCR; type: cell-based, mouse; details: anti-CD3 and anti-CD28 plus cytokine
Description: as §2
The primer sequences are available upon request.

naïve CD4+ T cells [5] = details: El-Behi et al., 2011; cited from earlier work

Row | Molecule | GM-CSF-expressing cell differentiation from naïve CD4+ T cells (naïve CD4+ T cells [1]) | STAT5 activation (tyrosine phosphorylation) (STAT5; cytokine 30 min) | also measured
1 | IL-1β: cytokine (R&D Systems) | did not increase GM-CSF-expressing cell differentiation | neither IL-23 nor IL-1β seemed to be potent STAT5 stimulators | 
2 | IL-6: cytokine (R&D Systems), essential for TH17 differentiation | profound inhibitory effect |  | 
3 | IL-7: cytokine interleukin-7 (R&D Systems) | strongly promoted | potently activated STAT5 | TH17 differentiation (naïve CD4+ T cells [2]): not observed to have a demonstrable effect; GM-CSF expression in CD62LhiCD44lo and CD62LloCD44hi T cells [3]: promoted GM-CSF expression; frequency of GM-CSF+ T cells / GM-CSF expression in CD4+CD44hi T cells (CD4+CD44hi T cells): significantly promoted GM-CSF expression; GM-CSF mRNA expression in naïve CD4+ T cells (naïve CD4+ T cells [4]): upregulated GM-CSF mRNA expression; STAT5 activation, Csf2 promoter binding and GM-CSF mRNA in activated CD4+ T cells (STAT5; CD4+ T cells activated 3 days, rested, then cytokine): induced STAT5 activation, Csf2 promoter binding and GM-CSF mRNA upregulation; STAT5 activation in naïve CD4+ T cells (STAT5; naïve CD4+ T cells, cytokine 30 min): induced STAT5 activation
4 | TGF-β: cytokine (R&D Systems) |  |  | GM-CSF expression (naïve CD4+ T cells [5]): inhibits GM-CSF expression
5 | IL-23: cytokine (R&D Systems) (protein, UniProt Q9NPF7 20-189; P29460 23-328, looked up) Interleukin-23 subunit alpha: RAVPGGSSPAWTQCQQLSQKLCTLAWSAHPLVGHMDLREEGDEETTNDVPHIQCGDGCDPQGLRDNSQFCLQRIHQGLIFYEKLLGSDIFTGEPSLLPDSPVGQLHASLLGLSQLLQPEGHHWETQQIPSLSPSQPWQRLLLRFKILRSLQAFVAVAARVFAHGAATLSP Interleukin-12 subunit beta: IWELKKDVYVVELDWYPDAPGEMVVLTCDTPEEDGITWTLDQSSEVLGSGKTLTIQVKEFGDAGQYTCHKGGEVLSHSLLLLHKKEDGIWSTDILKDQKEPKNKTFLRCEAKNYSGRFTCWWLTTISTDLTFSVKSSRGSSDPQGVTCGAATLSAERVRGDNKEYEYSVECQEDSACPAAEESLPIEVMVDAVHKLKYENYTSSFFIRDIIKPDPPKNLQLKPLKNSRQVEVSWEYPDTWSTPHSYFSLTFCVQVQGKSKREKKDRVFTDKTSATVICRKNASISVRAQDRYYSSSWSEWASVPCS | did not increase GM-CSF-expressing cell differentiation | neither IL-23 nor IL-1β seemed to be potent STAT5 stimulators | 
